{"source": "patent US20250170101A1", "about": "“MONOACYLGLYCEROL LIPASE INHIBITORS AND USE THEREOF FOR THE TREATMENT AND MANAGEMENT OF PAIN AND RELATED CONDITIONS” (Psy Therapeutics, Inc., priority 2021, published 2025)", "experiment": "Pharmacokinetic study of compounds in mice, Example 25", "assay_type": "in vivo, male C57BL/6 mice", "settings": "Brain, Oral, 5 mg/kg", "experimental": "Healthy male C57BL/6 mice (8-12 weeks old) weighing between 17 to 35 g were procured from Global, India. Temperature and humidity were maintained at 22±3° C. and 30-70%, respectively and illumination was controlled to give a sequence of 12 hr light and 12 hr dark cycle. Temperature and humidity were recorded by auto-controlled data logger system. All the animals were provided laboratory rodent diet. Reverse osmosis water treated with ultraviolet light was provided ad libitum.\nProtocol A: Twenty-four male mice were divided into two groups as; Group 1: 30 mg/kg/IP; Plasma and brain; Number of animals=12; Animal #1-12. Group 2: 30 mg/kg/PO; Plasma and brain; Number of animals=12; Animal #13-24. […] All samples were processed for analysis by protein precipitation using acetonitrile and analyzed with fit-for-purpose LC/MS/MS method (LLOQ—2.02 ng/mL for plasma and 6.06 ng/g for brain). Pharmacokinetic parameters were calculated using the non-compartmental analysis tool of Phoenix WinNonlin®.\nProtocol B: Thirty six mice were included into the study and divided in to three groups as Group 1 (n=12), Group 2 (n=12) and Group 3 (n=12) with n=2 mice per time-point design. […] Plasma and brain samples were quantified by fit-for-purpose LC-MS/MS method (LLOQ: 1.01 ng/mL for plasma and 2.02 ng/mL for brain). […]"}
{"smiles": "O=C(c1cc(O)ccc1F)N1CC2(CC(n3cc(C(F)(F)F)c(-c4ccccc4F)n3)C2)C1", "note": "(single isomer, unassigned) [Compound 473, (2-fluoro-5-hydroxyphenyl){6-[3-(o-fluorophenyl)-4-(trifluoromethyl)-1-pyrazolyl]-2-aza-2-spiro[3.3]heptyl}methanone]", "values": [{"measurement": "AUClast", "result": 464.42, "unit": "ng·h/mL"}]}
